{"source": "paper PMC11587516", "about": "(ACS Chemical Neuroscience, 2024)", "type_in_all_cases": "cell-based", "key": {"[1]": {"biological_target": "T1, hBGT1 Q299L (Homo sapiens, UniProt P48065, Q299L)", "T1 construct": "HA; expressed in transfected cells; host or cells: tsA201 cells (transformed HEK293), transient expression", "T1 sequence (P48065 1-614 Q299L)": "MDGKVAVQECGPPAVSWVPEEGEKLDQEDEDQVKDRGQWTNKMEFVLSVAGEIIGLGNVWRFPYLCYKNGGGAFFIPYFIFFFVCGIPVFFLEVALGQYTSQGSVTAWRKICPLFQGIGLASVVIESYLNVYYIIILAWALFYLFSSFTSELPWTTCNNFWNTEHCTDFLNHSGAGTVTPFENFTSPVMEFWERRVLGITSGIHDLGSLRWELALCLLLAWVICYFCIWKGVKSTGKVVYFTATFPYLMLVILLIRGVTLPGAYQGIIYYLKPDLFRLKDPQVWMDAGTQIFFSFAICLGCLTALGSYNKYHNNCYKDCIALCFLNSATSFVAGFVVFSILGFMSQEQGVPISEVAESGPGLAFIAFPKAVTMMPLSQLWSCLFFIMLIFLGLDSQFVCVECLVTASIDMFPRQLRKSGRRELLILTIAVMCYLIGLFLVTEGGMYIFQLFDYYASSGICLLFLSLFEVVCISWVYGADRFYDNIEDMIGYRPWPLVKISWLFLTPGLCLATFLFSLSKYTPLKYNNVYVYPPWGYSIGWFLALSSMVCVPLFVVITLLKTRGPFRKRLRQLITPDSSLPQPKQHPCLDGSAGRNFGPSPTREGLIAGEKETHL", "test": "[3H]GABA uptake assay, hBGT1 mutant Q299L in tsA201 cells", "procedure": "(§1) To validate the molecular modeling, particularly the crucial interactions with the Glu52 and Gln299 residues, the activity of compound 9 was tested on the following hBGT1 mutants: E52A, E52Y, Q299L, and the double mutant E52A+Q299L (Figure 5 and Table 1).[14]\n(§2) The CHO cells were placed in 96-well plates (approximately 50,000 cells/well) for about 24 h before the experiment. […] After incubation, cells were washed 3 times with 100 μL/well ice-cold assay buffer, 150 μL/well MicroScint20 (PerkinElmer) was subsequently added before the plate was shaken for at least 1 h. The radioactivity of each well of the plate was measured on a TopCount NXT scintillation counter. […] Data presented are the pooled data of at least three independent experiments with three technical replicates if not stated otherwise in figure legends. Concentration–response curves were fitted by nonlinear regression to the sigmoidal concentration–response model with GraphPad Prism v 9.0.\n(§3) The tsA201 cell line (a transformed HEK293 cell line) has been described previously and was cultured accordingly.[20] The tsA201 cells used for transient expression of hBGT1 mutants were transfected with DNA constructs (8 μg per 10 cm plate) using 40 μL of PolyFect transfection reagent according to the manufacturer’s protocol (Qiagen). […]"}, "[2]": {"biological_target": "T2, hGAT1 (Homo sapiens, UniProt P30531)", "T2 construct": "expressed in transfected cells", "test": "[3H]GABA uptake assay, CHO cells stably expressing hGAT1"}, "[3]": {"biological_target": "T3, hGAT3 (Homo sapiens, UniProt P48066)", "T3 construct": "expressed in transfected cells", "T3 sequence (P48066 1-632)": "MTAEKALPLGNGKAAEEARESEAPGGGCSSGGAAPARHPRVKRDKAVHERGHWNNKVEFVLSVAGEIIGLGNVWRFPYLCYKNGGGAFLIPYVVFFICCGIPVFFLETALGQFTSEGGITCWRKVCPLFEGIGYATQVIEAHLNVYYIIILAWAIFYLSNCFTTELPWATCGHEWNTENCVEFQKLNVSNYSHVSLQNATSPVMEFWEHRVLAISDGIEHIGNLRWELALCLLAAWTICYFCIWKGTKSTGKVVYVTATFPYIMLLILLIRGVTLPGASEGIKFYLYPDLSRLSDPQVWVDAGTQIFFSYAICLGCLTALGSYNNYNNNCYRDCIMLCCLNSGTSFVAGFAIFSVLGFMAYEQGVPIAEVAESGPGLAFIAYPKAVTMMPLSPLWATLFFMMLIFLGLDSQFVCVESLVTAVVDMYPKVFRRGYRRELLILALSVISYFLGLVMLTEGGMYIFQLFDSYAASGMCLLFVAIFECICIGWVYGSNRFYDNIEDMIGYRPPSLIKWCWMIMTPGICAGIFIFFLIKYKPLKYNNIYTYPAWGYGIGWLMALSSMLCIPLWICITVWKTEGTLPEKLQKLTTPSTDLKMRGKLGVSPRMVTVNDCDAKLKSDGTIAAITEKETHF", "test": "[3H]GABA uptake assay, CHO cells stably expressing hGAT3"}, "[4]": {"biological_target": "T4, hBGT1 E52A (Homo sapiens, UniProt P48065, E52A)", "T4 construct": "host or cells: tsA201 cells (transformed HEK293), transient expression", "T4 sequence (P48065 1-614 E52A)": "T1 sequence (P48065 1-614 Q299L) with E52A, L299Q", "test": "[3H]GABA uptake assay, hBGT1 mutant E52A in tsA201 cells", "procedure": "as §1, §2, §3"}}, "note": "Positions count from the first letter of the chain named."}
{"compound": "NC12CC(C(=O)O)(C1)C2", "note": "[Compound 9]", "values": [{"measurement": "IC50", "setting": "[1]", "value": 73.5, "unit": "µM"}, {"measurement": "decrease in activity compared with wild type hBGT1", "setting": "[1]; Q299L vs wt", "value": "more than 2 fold"}, {"measurement": "IC50", "setting": "[2]", "value": "> 100", "unit": "µM"}, {"measurement": "inhibitory effect on [3H]GABA uptake", "setting": "[2]; 100 μM, CHO cells", "value": "no inhibitory effect"}, {"measurement": "IC50", "setting": "[3]", "value": 58.3, "unit": "µM"}, {"measurement": "inhibition at 100 µM", "setting": "[3]; CHO, read-out: inhibition of GABA uptake", "value": "~73", "unit": "%"}, {"measurement": "IC50", "setting": "[4]", "value": 64.2, "unit": "µM"}, {"measurement": "decrease in activity compared with wild type hBGT1", "setting": "[4]; E52A vs wt", "value": "~2", "unit": "fold"}]}
